Reference: PMC5187916, “Discovery of a New Class of Cathepsin K Inhibitors in Rhizoma Drynariae as Potential Candidates for the Treatment of Osteoporosis” (International Journal of Molecular Sciences, 2016)

Assays:
Cathepsin K [1] = target: T1, Cathepsin K (Homo sapiens, UniProt P43235); experiment: fluorescence enzyme assay with recombinant human Ctsk, LR-AFC substrate; format: biochemical
T1 construct: gene CTSK
T1 sequence (P43235 115-329): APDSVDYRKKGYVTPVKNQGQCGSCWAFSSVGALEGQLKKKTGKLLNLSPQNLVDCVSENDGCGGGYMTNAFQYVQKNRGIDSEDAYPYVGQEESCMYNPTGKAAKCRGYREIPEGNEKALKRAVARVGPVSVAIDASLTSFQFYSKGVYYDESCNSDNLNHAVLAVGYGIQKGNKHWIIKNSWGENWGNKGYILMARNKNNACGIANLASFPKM

Cathepsin K [2] = target: T1, Cathepsin K; experiment: fluorescence enzyme assay with recombinant human Ctsk, LR-AFC substrate (kit positive control); format: biochemical

IC50 (Cathepsin K [1]) [µM]	IC50 (Cathepsin K [2]) [µM]	Compound
27.2	–	C=C(C)[C@H](CC=C(C)C)Cc1c(O)cc(O)c2c1O[C@H](c1ccc(O)cc1O)CC2=O [SG, Sophoraflavanone G]
8.79	–	C=C(C)C(CC=C(C)C)Cc1c(O)cc2c(c1O)C(=O)CC(c1ccc(O)cc1O)O2 (stereo not drawn) [KF, Kushennol F]
–	0.047	FF-FMK
